Reference: the NIST ThermoML archive (doi:10.1021/je800110r)
± gives the expanded uncertainty stated by the source.

Conditions: 293.15 K, Liquid, Vibrating tube method

Measured: mass density

CCCCCCCCCC [decane]
742.9 ± 2 kg/m3: 17931 kPa | 17969 kPa | 18004 kPa | 18017 kPa | 18036 kPa | 18102 kPa | 18118 kPa | 18162 kPa | 18256 kPa
742.4 ± 2 kg/m3: 17103 kPa | 17257 kPa | 17313 kPa | 17338 kPa | 17352 kPa | 17370 kPa | 17390 kPa | 17410 kPa | 17425 kPa
742.1 ± 2 kg/m3: 17089 kPa
743.1 ± 2 kg/m3: 18342 kPa | 18359 kPa | 18381 kPa | 18400 kPa | 18434 kPa
742.2 ± 2 kg/m3: 17005 kPa | 17122 kPa | 17142 kPa
742.8 ± 2 kg/m3: 17772 kPa | 17828 kPa | 17868 kPa | 17883 kPa | 17899 kPa | 17913 kPa
742.3 ± 2 kg/m3: 17022 kPa | 17041 kPa | 17058 kPa | 17074 kPa | 17156 kPa | 17176 kPa | 17193 kPa | 17207 kPa | 17227 kPa | 17240 kPa | 17296 kPa
742.5 ± 2 kg/m3: 17274 kPa | 17440 kPa | 17453 kPa | 17471 kPa | 17486 kPa | 17508 kPa | 17589 kPa
743 ± 2 kg/m3: 17955 kPa | 17985 kPa | 18058 kPa | 18072 kPa | 18088 kPa | 18140 kPa | 18195 kPa | 18214 kPa | 18233 kPa | 18295 kPa | 18317 kPa
742.7 ± 2 kg/m3: 17627 kPa | 17715 kPa | 17736 kPa | 17752 kPa | 17806 kPa | 17849 kPa
743.2 ± 2 kg/m3: 18178 kPa | 18273 kPa | 18418 kPa | 18500 kPa | 18538 kPa
743.9 ± 2 kg/m3: 19353 kPa | 19395 kPa | 19424 kPa | 19451 kPa | 19464 kPa | 19536 kPa | 19556 kPa | 19589 kPa
743.7 ± 2 kg/m3: 19096 kPa | 19115 kPa | 19134 kPa | 19153 kPa | 19307 kPa | 19325 kPa | 19340 kPa
744 ± 2 kg/m3: 19575 kPa
743.4 ± 2 kg/m3: 18645 kPa | 18663 kPa | 18766 kPa | 18793 kPa | 18832 kPa | 18849 kPa
742.6 ± 2 kg/m3: 17521 kPa | 17538 kPa | 17558 kPa | 17571 kPa | 17610 kPa | 17648 kPa | 17663 kPa | 17679 kPa | 17699 kPa | 17787 kPa
743.8 ± 2 kg/m3: 19259 kPa | 19374 kPa | 19408 kPa | 19480 kPa | 19495 kPa | 19511 kPa | 19524 kPa
743.6 ± 2 kg/m3: 18936 kPa | 18976 kPa | 19001 kPa | 19019 kPa | 19043 kPa | 19172 kPa | 19191 kPa
743.5 ± 2 kg/m3: 18811 kPa | 18871 kPa | 18888 kPa | 18912 kPa | 18955 kPa | 19062 kPa | 19077 kPa
743.3 ± 2 kg/m3: 18457 kPa | 18474 kPa | 18520 kPa | 18560 kPa | 18581 kPa | 18599 kPa | 18622 kPa | 18686 kPa | 18701 kPa | 18728 kPa | 18745 kPa
